Measurements from PubChem BioAssay (NCI).
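96-well plates; 48 h exposure; 5 concentrations. Endpoints by linear interpolation between flanking doses. Not reached: highest tested concentration assigned. TGI is the concentration that stops growth completely.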

How the values were obtained:
Experiment in all cases: NCI tumour cell line growth inhibition, 48 h
HCT-116 colon = system: HCT-116 colon
SN12C renal = system: SN12C renal
SNB-19 CNS = system: SNB-19 CNS
SF-295 CNS = system: SF-295 CNS
A549 NSCLC = system: A549 NSCLC
NCI-H460 lung = system: NCI-H460 lung
OVCAR-5 ovarian = system: OVCAR-5 ovarian
HOP-92 NSCLC = system: HOP-92 NSCLC
MALME-3M melanoma = system: MALME-3M melanoma
SR leukemia = system: SR leukemia

Structure (SMILES)	TGI (HCT-116 colon)	TGI (SN12C renal)	TGI (SNB-19 CNS)	TGI (SF-295 CNS)	TGI (A549 NSCLC)	TGI (NCI-H460 lung)	TGI (OVCAR-5 ovarian)	TGI (HOP-92 NSCLC)	TGI (MALME-3M melanoma)	TGI (SR leukemia)
O=c1[nH]c2ccccc2c(=O)c2cc3ccccc3cc12	20.3 µM	> 100 µM	37.3 µM	53.9 µM	> 100 µM	53.6 µM	> 100 µM	19.8 µM	> 100 µM	
COc1ccc(CC(COS(=O)(=O)c2ccc(C)cc2)NS(=O)(=O)c2ccc(C)cc2)cc1 (stereo not drawn)	> 48.4 µM	36.1 µM	32.6 µM	33.6 µM	> 62.2 µM	55.2 µM	39.9 µM	19.9 µM	27.3 µM	
C/C(=N\NC(N)=O)C(CN1CCOCC1)C(c1ccccc1)c1c(O)c2ccccc2oc1=O (stereo not drawn)	> 100 µM		> 100 µM		> 100 µM		> 100 µM	> 100 µM	> 100 µM	> 100 µM
Cc1cccc2c(=O)c3cccc(CC(=O)O)c3oc12	> 100 µM	> 100 µM	> 100 µM	> 100 µM	> 100 µM	> 100 µM		> 100 µM	> 100 µM	> 100 µM
O=c1oc2cc(O)ccc2c(O)c1C(c1ccc(/C=C/c2ccccc2)cc1)c1c(O)c2ccc(O)cc2oc1=O	> 100 µM	> 100 µM	> 100 µM	> 100 µM	> 100 µM	> 100 µM	> 100 µM	> 100 µM	> 100 µM	
COC(=O)c1c(C(=O)OC)c2ccccn2c1-c1cc(C)cc2c1C(=O)C=CC2=O	15.7 µM	17.6 µM	18.6 µM	18 µM	25.7 µM		16.9 µM		15 µM	8.53 µM
CCOc1cc(NC(C)=O)ccc1C(=O)NN1C(=O)/C(=C/c2ccc(Cl)cc2)N=C1c1ccccc1	> 100 µM	> 100 µM	> 100 µM	> 100 µM	> 100 µM		> 100 µM	> 100 µM		> 100 µM
C=C1C(=O)O[C@H]2[C@@H]3O[C@@](C)(CC/C=C(\C)CCC[C@@H]2C)[C@H](O)C[C@@H]13	> 100 µM	8.15 µM		27.8 µM	24.9 µM		31.2 µM	> 100 µM	53.3 µM	> 100 µM
CCOC(=O)c1nc2ccccc2nc1Oc1ccc(F)cc1	> 100 µM	> 100 µM	> 100 µM	> 100 µM	> 100 µM	> 100 µM	> 100 µM	> 100 µM		
CC(C)C1CC(CO)(CNc2nc(N)nc(Cl)c2C=O)C1 (stereo not drawn)	7.23 µM	28.5 µM	17.1 µM	44.4 µM	31.4 µM	31.9 µM	96.9 µM	4.83 µM	44.3 µM	
CC1=C(C(N)=O)C(c2ccncc2)C(C#N)C(=O)N1 (stereo not drawn)	> 100 µM		> 100 µM	> 100 µM		> 100 µM		> 100 µM		> 100 µM
COc1ccc(N(c2ccc(C#N)cc2)c2ccc(C#N)cc2)cc1	> 100 µM	> 100 µM	> 100 µM	> 100 µM	> 100 µM	> 100 µM	> 100 µM	> 100 µM		
